Test results from US20070202188A1, “Use of alkene carboxlic acid n alkylamides as flavouring agents” (priority 2003, published 2007).

How the values were obtained:
[1] = system: group of 6-8 testers; assay: Sensorial evaluation (tasting of sugar solution by a group of testers); assay type: in vivo; conditions: approx. 5 ml swallowed
Method: The substance to be tasted (see below) was dissolved in ethanol and the ethanolic solution was then diluted with 11% strength sugar solution (final concentration: c). For tasting, in each case approx. 5 ml of the sugar solution was swallowed. If the threshold value of the substance was known, a value just above the threshold value was chosen for the tasting. A group of 6-8 testers tasted the solutions.

[2] = system: oral cavity; conditions: in vivo; cited from earlier work
[3] = system: mouse; conditions: mouse oral; cited from earlier work
[4] = cited from earlier work
[5] = system: mouth; conditions: in vivo; cited from earlier work
[6] = c=10 ppm in 11% strength sugar solution

In the case of “2E-decenoic acid N-(2-methylbutyl)amide [Example 2]”, the sensorial profile [1, 6] is reported as “slightly piquant, saliva-promoting, tingling, mild heat sensation”.
For 2E-tetradecenoic acid N-isobutylamide, the “sensorial effect described in the literature” value [2] is given as “no piquant taste was found”.
With “3E-nonenoic acid N-isobutylamide [Example 3]” the sensorial profile [1, 6] was “anaesthetizing, piquant taste builds up, impression of sweet palmond, slightly bitter”.
In the case of `CCCCC/C=C/C=C/C(=O)NCC(C)C` [2E,4E-decadienoic acid N-isobutylamide], the sensorial profile [1, 6] is listed as “saliva-promoting, fatty, fruity, slightly tingling, slightly piquant” and the “sensorial effect described in the literature” value [2] is listed as “chiefly shows an anaesthetizing effect”.
With `CCCCCC/C=C/CC(=O)NCC(C)C` [Example 4, 3E-decenoic acid N-isobutylamide] the sensorial profile [1, 6] was “tickling piquant taste, builds up slowly in the pharynx, slightly bitter”.
For `COc1cc(CNC(=O)CCCC/C=C/C(C)C)ccc1O` [capsaicin, N-(4-hydroxy-3-methoxybenzyl)-8-methyl-(6E)-nonenoic acid amid], the LD50 [3] is given as 47 mg and the “damage with frequent use and overdose” value [4] is given as “chronic gastritis and kidney and liver damage”.
With `COc1cc(CNC(=O)CCCCCCC(C)C)ccc1O` [dihydrocapsaicin] the sensorial profile ([1]; c=100 ppb in 11% strength sugar solution) was “action starts with a slight delay in the pharyngeal cavity, aggressive, burning piquant taste (chilli, slight evolution of heat)”.
For `O=C(/C=C/C=C/c1ccc2c(c1)OCO2)N1CCCCC1` [piperine, 1-piperoylpiperidine], the intrinsic taste [5] is given as “intensive intrinsic taste reminiscent of pepper” and the “relative piquant taste compared with capsaicin” value [5] is given as “approx. 1%”.
